In patent US20210145972A1, “NAN[…] A NUCLEIC ACID SCAFFOLD AND VIRUS-BINDING PEPTIDE MOIETIES” (FRAUNHOFER-GESELLSCHAFT ZUR FÖRDERUNG DER ANGEWANDTEN …, priority 2017, published 2021):
Entries after “also recorded” stand apart in the source; their conditions may differ. Ends that are not written are not given here.

Assays:
Dengue virus 2 = experiment: Focus formation assay; assay type: cell-based
Procedure: The inhibition of Dengue virus 2 by DET4 peptides and DET4 coupled to DNA nanostructures was investigated by focus formation assay. Target cells were seeded in a 96-well plate the day before infection. In a separate 96 well plate 200-500 virus particles per well were incubated with or without DET4 monomers and DET4-coupled DNA Trimers in different concentrations for 2 hours followed by transfer of the mixtures to confluent target cell monolayers and incubation for 1 h at 37° C.
Subsequently fresh DMEM/2% (v/v) FBS containing 1.6% (w/v) Avicell was added to each well, covering the surface with microcrystalline cellulose to avoid spreading of the virus in the medium and enhancing formation of virus foci. Infected cells were incubated for 4 days followed by washing with PBS and fixing with 70% ethanol. Cells were rinsed with phosphate buffered saline, pH 7.4 (PBS) prior to immunostaining. Virus foci were detected using an Anti-flavivirus mouse monoclonal antibody that recognizes Dengue viruses, followed by horseradish peroxidase-conjugated goat anti-mouse immunoglobulin, and developed using TMB chromogen substrate. After washing, Virus foci were visible in the wells as blue spots that were counted for quantitative analysis. Counting results are presented in the table 1.

Dengue virus = conditions: read-out: virus entry into host cells inhibited by 50% (IC50); cited from earlier work
[1] = biological target: influenza A hemagglutinin (Influenza A virus, UniProt P03437); conditions: read-out: dissociation constant KD with hemagglutinin; cited from earlier work
[2] = system: influenza A infection of MDCKII cells; experiment: Infection inhibition assay using MDCKII cells (cytopathic effect); assay type: cell-based
Procedure: Also preferred is an infection inhibition assay. The infection inhibition assay using MDCKII cells and the MTT Test (or MTS). Inhibitor (peptide-conjugates DNA nanostructure) and virus are pre-incubated for 10-30 min at room temperature and added to cells (MDCKII for influenza, Vero E6 for Dengue). Viral infection of host cells can be tested after 24-72 h by either crystal violet staining or MTT/MTS reagents. Infected cells will slow down their metabolism and/or die after a certain time.
The inhibition of the influence virus by different DNA scaffolds together with PeB is shown. It can be seen from SPR data in FIG. 8 that the binding of virus particles is increased when more peptides are presented on the DNA scaffold. […] No binding to the virus particles is seen when they are not carrying any peptides.
FIG. 14A: Infection inhibition assay using MDCKII cells. This is a microscopic image of MDCKII cells. The cells form a healthy monolayer. No cytopathic effect (CPE) is seen.
FIG. 14b: Infection inhibition assay using MDCKII cells. This is a microscopic image of MDCKII cells infected with influenza viruses. The cells begin to die. A cytopathic effect (CPE) (rounding up and small aggregations of the cells) is clearly seen.

[3] = system: inactivated influenza A virus; assay type: binding; conditions: flow cell 4 vs flow cell 2
influenza A viruses = experiment: Hemagglutination inhibition assay (HAI); assay type: cell-based; conditions: dilution series, constant virus and blood, FIGS. 11-13

AGVKDGKLDF [DET4]
inhibition of Dengue virus infection of target cells, result in words (Dengue virus 2): not able to inhibit viral infection | virus foci counted (Dengue virus 2; 10 μM): 53 | virus foci counted (Dengue virus 2; 50 μM): 47 | virus foci counted (Dengue virus 2; 100 μM): 46 | IC50 (Dengue virus): 35 µM

ARDFYDYDVFYYAMD [PeB, reference compound]
Kd [1]: 56.8 µM | inhibition of infection / cytopathic effect ([2]; 500 μM): more significant cytopathic effect; also recorded: not enough to inhibit the infection

DNA 4-arm structure with 3×PeB: mimics the N structure with a fourth arm bearing biotin, carrying 3×PeB (ARDFYDYDVFYYAMD; also: stated molecule is a DNA 4-arm structure with biotin arm carrying 3×PeB)
dissociation time compared to the simple DNA double-strand (SPR) [3]: slower dissociation time

B1: DNA-PeB3: three-branched DNA scaffold of three DNA strands (SEQ ID NOs 2-4) with three PeB peptide moieties, one per strand end (conjugate)
DNA 1: ACTATCTTTGGTCTATTATCTTGAGTCATC
DNA 2: TAGTTGTGTGTGTGTTAGACCAAAGATAGT
DNA 3: GATGACTCAAGATAAACACACACACAACTA
modifications: DNA, backbone and methylation of C not given here; PeB peptide conjugated at one end of each strand
inhibition of virus binding to RBCs (HAI), result in words (influenza A viruses): able to inhibit binding of the influenza A virus to red blood cells | inhibition of virus binding to RBCs (HAI), result in words (influenza A viruses; listed as N): concentration-dependent increase in binding | inhibition of virus binding to RBCs (HAI), result in words (influenza A viruses; listed as N_3×PeB): RBCs forming a dot on the bottom of the well can be seen for high concentrations; also recorded: hinder the viruses from binding to RBCs | inhibition of infection / cytopathic effect ([2]; 11 μM, listed as N with 3 peptides): clear inhibition | inhibition of infection / cytopathic effect ([2]; 11 μM, listed as Trimer “N” with 3×PeB): Virus infection was inhibited
